# Results as given in publication PMC1971749, “The effects of gonadotrophin releasing hormone analogues in prostate cancer are mediated through specific tumour receptors” (British Journal of Cancer, 1990).
# Like-named read-outs stand apart in the source and are kept apart here.
# Columns and labels:
# [1] = system: GnRH binding sites of LNCaP cells; assay: GnRH analogue binding to LNCaP cells (displacement of 125I-buserelin); design: species or system human; settings: for displacement of labelled buserelin: specificity test, structurally unrelated peptides, LNCaP
# Excerpt: (§1) Br.~~~~ ~ ~ J. Cace (19) 62 969 ?amla resLd,19 The effects of gonadotrophin releasing hormone analogues in prostate cancer are mediated through specific tumour receptors A. Qayuml, W. Gullick2, R.C. Clayton3, K. Sikora' & J. Waxman' 'Department of Clinical Oncology and 2ICRF Oncology Group, Royal Postgraduate Medical School, and 3Clinical Endocrinology, MRC, Northwick Park Hospital, London, UK. Summary We have investigated the possibility of a direct regulatory effect of gonadotrophin releasing hormone (GnRH) analogues on prostatic cancer cell growth. Here we report high affinity binding (Kd = 50 nM) of a GnRH analogue resulting in biphasic growth modulation of the human androgen-sensitive prostatic cancer cell line LNCaP. […] Seventy-six human benign and malignant tumours were assayed following surgical resection. […] Cancer of the prostate is the second most common cause of malignancy among males. The treatment of prostatic cancer aims to reduce serum androgen concentrations. The long- acting agonist analogues of GnRH have been recently intro- duced as effective alternative therapies to orchiectomy and oestrogen treatment (Waxman, 1987). Their effect on andro- gen dependent cell growth is thought to be mediated through down-regulation of the pituitary-gonadal axis. GnRH agon- ist treatment leads to an initial increase in the serum levels of LH, FSH and androgens and this may be accompanied by tumour flare (Waxman et al., 1985). However, this exacerba- tion of symptoms is not temporally related to changes in serum LH, FSH and androgen concentrations. The differ- ences in the timing of these biochemical and clinical phenomena raises the possibility of a direct effect of GnRH analogues at the level of the tumour. This present study explored the direct effects of GnRH analogues on prostatic cancer cells in culture and in vivo. GnRH analogue binding to human prostatic cancer cells grown in culture and biopsy samples was first examined. GnRH binding sites were characterised in cell lines and in human tumours. The biological effects of GnRH on prostatic cancer cells and a possible autocrine stimulatory role of GnRH-like peptides were investigated. Materials and methods Cell culture The human androgen-sensitive prostatic cancer cell line LNCaP (isolated from lymph node metastasis; Horoszewicz et al., 1983) and the human androgen-insensitive prostatic cell line DU145 (isolated from brain metastasis) were obtained from the American Type Culture Collection. Cul- tures were maintained in exponential growth in RPMI 1640 medium containing 10% charcoal stripped fetal calf serum and 5 fig ml-I insulin. The fetal calf serum used in cell cul- ture medium was treated with dextran and charcoal to remove steroids. Charcoal 0.25% and dextran-T70 0.025% were added to the serum, which was heated at 56'C for 2 h and then centrifuged at 4,000 r.p.m. for O min. The pellet was discarded, serum was filtered through 0.4 ltm filters and used in culture medium. The treated serum was assayed for steroid hormones by the Hammersmith Hospital Endocrine Laboratories and found to be steroid free, Cultures were incubated at 37?C in a humidified atmosphere containing 5% CO2 and subcultured weekly using 0.1% EDTA to remove the cells from the plastic substratum. Under these conditions, the doubling times of DU145 and LNCaP cells were 72 and 144 h respectively. GnRH binding assays Exponentially growing cells were harvested with 0.1% EDTA, washed twice with PBS and counted using 0.2% trypan blue as an indicator. The cells were then resuspended in assay buffer (10 mM Tris-HCI pH 7.6, 1 mM dithiothreitol, 0.3% bovine serum albumin). One million cells per tube were incubated with 200,000 c.p.m. (0.1 nM) of 25I buserelin (125J_ D-Ser (TBU)6-LHRH-ethylamide) (Hoechst AG, Frankfurt), (specific activity 53,000 kBq;bg-') with or without varying concentrations of unlabelled buserelin (O.1-100 nM). Non- specific binding was estimated in the presence of 10 IM unlabelled buserelin. […]
# [2] = system: GnRH binding sites of DU145 cells; assay: GnRH analogue binding to DU145 cells (displacement of 125I-buserelin); design: species or system human
# Excerpt: (§2) Br.~~~~ ~ ~ J. Cace (19) 62 969 ?amla resLd,19 The effects of gonadotrophin releasing hormone analogues in prostate cancer are mediated through specific tumour receptors A. Qayuml, W. Gullick2, R.C. Clayton3, K. Sikora' & J. Waxman' 'Department of Clinical Oncology and 2ICRF Oncology Group, Royal Postgraduate Medical School, and 3Clinical Endocrinology, MRC, Northwick Park Hospital, London, UK. Summary We have investigated the possibility of a direct regulatory effect of gonadotrophin releasing hormone (GnRH) analogues on prostatic cancer cell growth. Here we report high affinity binding (Kd = 50 nM) of a GnRH analogue resulting in biphasic growth modulation of the human androgen-sensitive prostatic cancer cell line LNCaP. […] Seventy-six human benign and malignant tumours were assayed following surgical resection. […] Cancer of the prostate is the second most common cause of malignancy among males. The treatment of prostatic cancer aims to reduce serum androgen concentrations. The long- acting agonist analogues of GnRH have been recently intro- duced as effective alternative therapies to orchiectomy and oestrogen treatment (Waxman, 1987). […] GnRH binding assays Exponentially growing cells were harvested with 0.1% EDTA, washed twice with PBS and counted using 0.2% trypan blue as an indicator. […]
# LNCaP cells = assay: Biological response study, growth of LNCaP cells; format: cell-based, human
# Excerpt: as §1, with “Under these conditions, the doubling times of DU145 and LNCaP cells were 72 and 144 h respectively.” left out, “indicator.” for “indicator. The cells were then resuspended in assay buffer (10 mM Tris-HCI pH 7.6, 1 mM dithiothreitol, 0.3% bovine serum albumin). One million cells per tube were incubated with 200,000 c.p.m. (0.1 nM) of 25I buserelin (125J_ D-Ser (TBU)6-LHRH-ethylamide) (Hoechst AG, Frankfurt), (specific activity 53,000 kBq;bg-') with or without varying concentrations of unlabelled buserelin (O.1-100 nM). Non- specific binding was estimated in the presence of 10 IM unlabelled buserelin.”
# DU145 cells = assay: Biological response study, growth of DU145 cells; format: cell-based, human; settings: DU145 (androgen-insensitive) cells, 10 days
# Excerpt: as §2
# [3] = GnRH radioimmunoassay, specificity; settings: cross-reactivity control, Figure 1; sensitivity 0.25 fmol per tube
# [4] = 100-fold excess of GnRH antagonist over buserelin, cell numbers, triplicate, representative experiment (Figure 6)
compound,measurement,setting,value
N[C@@H](CSSC[C@H](N)C(=O)Nc1ccc([N+](=O)[O-])cc1)C(=O)Nc1ccc([N+](=O)[O-])cc1 [L-cystine-bis-(4-nitroanilide)],reduction of specific binding of buserelin by protease substrate,"[1]; LNCaP cells, protease substrate final concentration 10 µM (printed ""10 gsM"")",28%
same,reduction of specific binding of buserelin by protease substrate,"[2]; protease substrate final concentration 10 µM (printed ""10 gsM"")",68%
D-Ser (TBU)6-LHRH-ethylamide [buserelin],Kd,"[1]; Scatchard transformation of the same data, single class of binding sites in LNCaP cells, read-out: Kd (Scatchard plot)",40 nM
same,binding sites per cell,"[1]; Scatchard transformation, LNCaP cells","35,000 binding sites per cell"
same,Kd,"[1]; intact LNCaP cells (10^6 per tube), 125I buserelin 0.1 nM, unlabelled buserelin, Tris-HCl pH 7.6, 3 h, 4 C, triplicate, representative experiment, read-out: Kd of GnRH analogue binding in LNCaP",50 nM
same,Kd,"[2]; 125I buserelin 0.1 nM, 3 h, 4 C, pH 7.6, abstract, read-out: Kd, low-affinity binding in DU145",10000 nM
same,growth of the cells at higher concentrations,"LNCaP cells; 10 days, GnRH analogue 100 nM",slightly inhibited
same,"stimulation of growth relative to control cultures, total DNA content","LNCaP cells; 10 days, buserelin 1-10 nM, 10% charcoal stripped FCS, Burton's method, three experiments each in triplicate",≤ 140%
same,"stimulation of growth relative to control cultures, cell numbers","LNCaP cells; 10 days, buserelin 1-10 nM, 10% charcoal stripped FCS, three experiments each in triplicate",≤ 140%
same,response to buserelin treatment (growth),DU145 cells,did not show any response
same,response to buserelin treatment (growth),DU145 cells; listed as GnRH analogue,without any biological response
"D-pGlul, D-Phe2, D- Trp3' 6) GnRH [GnRH antagonist]",block of inhibitory effect of buserelin,LNCaP cells; [4],partially blocked
same,block of stimulatory effect of buserelin,LNCaP cells; [4],partially blocked
"bradykinin: structurally unrelated peptide (RPPGFSPFR; Bradykinin; UniProt P01042 381-389, looked up)",displacement of labelled buserelin,[1],did not displace labelled buserelin
same,GnRH-immunoreactivity in GnRH-RIA,[3],did not show any GnRH-immunoreactivity
oxytocin: structurally unrelated peptide,displacement of labelled buserelin,[1],did not displace labelled buserelin
same,GnRH-immunoreactivity in GnRH-RIA,[3],did not show any GnRH-immunoreactivity
